Values of other authors in US20250248432A1, “MIXTURE COMPRISING D-ALLULOSE AND TASTE MODIFYING COMPOUNDS” (SYMRISE AG, priority 2019, published 2025).

Conditions: relative to sucrose

O=C(CO)C(O)C(O)C(O)CO [Allulose, D-allulose]
sweetness intensity of sucrose: about 70%
